Non-standard residues stand in square brackets, D forms with d. Residues, ends and D or L forms follow the SMILES beside them. pGlu = O=C1CC[C@@H](C(=O)O)N1; Abu = CC[C@H](N)C(=O)O
Target: T1, Orexin/Hypocretin receptor type 1 (Homo sapiens, UniProt O43613)
T1 sequence (O43613 whole entry): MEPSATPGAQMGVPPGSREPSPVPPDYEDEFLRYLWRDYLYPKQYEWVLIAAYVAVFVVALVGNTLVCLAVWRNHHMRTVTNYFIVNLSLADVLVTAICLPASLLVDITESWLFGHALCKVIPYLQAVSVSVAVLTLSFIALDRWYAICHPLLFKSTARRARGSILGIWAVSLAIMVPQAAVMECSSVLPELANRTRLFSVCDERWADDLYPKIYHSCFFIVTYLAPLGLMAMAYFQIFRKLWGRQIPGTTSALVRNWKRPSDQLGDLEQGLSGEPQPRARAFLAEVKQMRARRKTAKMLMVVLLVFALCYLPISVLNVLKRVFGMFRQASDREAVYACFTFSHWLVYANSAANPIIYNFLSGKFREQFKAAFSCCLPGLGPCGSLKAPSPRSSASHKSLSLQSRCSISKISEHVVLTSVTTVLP
Experiment: Effective agonist concentration to human orexin receptor type 1 determined using the Xlfit program
Format: functional

| EC50 | SMILES |
| --- | --- |
| 5.26 µM | CC[C@H](C)[C@H](NC(=O)CNC(=O)[C@H](C)NC(=O)[C@H](C)NC(=O)[C@H](Cc1c[nH]cn1)NC(=O)[C@H](CC(N)=O)NC(=O)CNC(=O)[C@H](CO)NC(=O)[C@H](C)NC(=O)[C@H](CCC(N)=O)NC(=O)[C@H](CC(C)C)NC(=O)[C@H](CC(C)C)NC(=O)[C@H](CCCN=C(N)N)NC(=O)[C@@H]1CCCN1C(=O)[C@H](CC(C)C)NC(=O)[C@H](CCCN=C(N)N)NC(=O)CNC(=O)[C@H](CCC(N)=O)NC(=O)[C@H](CC(C)C)NC(=O)CN)C(=O)N[C@@H](CC(C)C)C(=O)N[C@H](C(=O)N[C@@H](CCSC)C(N)=O)[C@@H](C)O (stereo in doubt; form 1) |
| 1.2 µM | CC[C@H](C)[C@H](NC(=O)CNC(=O)[C@H](C)NC(=O)[C@H](C)NC(=O)[C@H](Cc1c[nH]cn1)NC(=O)[C@H](CC(N)=O)NC(=O)CNC(=O)[C@H](CO)NC(=O)[C@H](C)NC(=O)[C@H](CCC(N)=O)NC(=O)[C@H](CC(C)C)NC(=O)[C@H](CC(C)C)NC(=O)[C@H](CCCN=C(N)N)NC(=O)[C@H](CCC(N)=O)NC(=O)[C@H](CC(C)C)NC(=O)[C@H](CCCN=C(N)N)NC(=O)CNC(=O)[C@@H]1CCCN1C(=O)[C@H](CC(C)C)NC(=O)CN)C(=O)N[C@@H](CC(C)C)C(=O)N[C@H](C(=O)N[C@@H](CCSC)C(N)=O)[C@@H](C)O (H-GLPGRLQRLLQASGNHAAGILTM-NH2) |
| 4.46 µM | CC[C@H](C)[C@H](NC(=O)CNC(=O)[C@H](C)NC(=O)[C@H](C)NC(=O)[C@H](Cc1c[nH]cn1)NC(=O)[C@H](CC(N)=O)NC(=O)CNC(=O)[C@H](CO)NC(=O)[C@H](C)NC(=O)[C@H](CCC(N)=O)NC(=O)[C@H](CC(C)C)NC(=O)[C@H](CC(C)C)NC(=O)[C@H](CCCN=C(N)N)NC(=O)[C@H](CCC(N)=O)NC(=O)[C@H](CC(C)C)NC(=O)[C@H](CCCN=C(N)N)NC(=O)[C@@H]1CCCN1C(=O)[C@H](CCC(N)=O)NC(=O)[C@H](CC(C)C)NC(=O)CN)C(=O)N[C@@H](CC(C)C)C(=O)N[C@H](C(=O)N[C@@H](CCSC)C(N)=O)[C@@H](C)O (H-GLQPRLQRLLQASGNHAAGILTM-NH2) |
| 17.8 µM | CC[C@H](C)[C@H](NC(=O)CNC(=O)[C@H](C)NC(=O)[C@H](C)NC(=O)[C@H](Cc1cnc[nH]1)NC(=O)[C@H](CC(N)=O)NC(=O)CNC(=O)[C@H](CO)NC(=O)[C@H](C)NC(=O)[C@H](CCC(N)=O)NC(=O)[C@H](CC(C)C)NC(=O)[C@H](CC(C)C)NC(=O)[C@@H]1CCCN1C(=O)[C@H](CCC(N)=O)NC(=O)[C@H](CC(C)C)NC(=O)[C@H](CCCNC(=N)N)NC(=O)CNC(=O)[C@H](CCC(N)=O)NC(=O)[C@H](CC(C)C)NC(=O)CN)C(=O)N[C@@H](CC(C)C)C(=O)N[C@H](C(=O)N[C@@H](CCSC)C(N)=O)[C@@H](C)O (H-GLQGRLQPLLQASGNHAAGILTM-NH2) |
| 1.7 µM | CC[C@H](C)[C@H](NC(=O)CNC(=O)[C@H](C)NC(=O)[C@H](C)NC(=O)[C@H](Cc1cnc[nH]1)NC(=O)[C@H](CC(N)=O)NC(=O)CNC(=O)[C@H](CO)NC(=O)[C@H](C)NC(=O)[C@H](CCC(N)=O)NC(=O)[C@H](CC(C)C)NC(=O)[C@H](CC(C)C)NC(=O)[C@H](CCCNC(=N)N)NC(=O)[C@H](CCC(N)=O)NC(=O)[C@H](CC(C)C)NC(=O)[C@H](CCCNC(=N)N)NC(=O)CNC(=O)[C@H](CCC(N)=O)NC(=O)[C@@H]1CCCN1C(=O)CN)C(=O)N[C@@H](CC(C)C)C(=O)N[C@H](C(=O)N[C@@H](CCSC)C(N)=O)[C@@H](C)O (H-GPQGRLQRLLQASGNHAAGILTM-NH2) |
| > 1000 µM | CC[C@H](C)[C@H](NC(=O)CNC(=O)[C@H](C)NC(=O)[C@H](C)NC(=O)[C@H](Cc1cnc[nH]1)NC(=O)[C@H](CC(N)=O)NC(=O)CNC(=O)[C@H](CO)NC(=O)[C@H](C)NC(=O)[C@H](CCC(N)=O)NC(=O)[C@H](CC(C)C)NC(=O)[C@H](CC(C)C)NC(=O)[C@H](CCCNC(=N)N)NC(=O)[C@H](CCC(N)=O)NC(=O)[C@@H]1CCCN1C(=O)[C@H](CCCNC(=N)N)NC(=O)CNC(=O)[C@H](CCC(N)=O)NC(=O)[C@H](CC(C)C)NC(=O)CN)C(=O)N[C@@H](CC(C)C)C(=O)N[C@H](C(=O)N[C@@H](CCSC)C(N)=O)[C@@H](C)O (H-GLQGRPQRLLQASGNHAAGILTM-NH2) |

The next lines start with the molecule.

| SMILES | EC50 |
| --- | --- |
| CC[C@H](C)[C@H](NC(=O)CNC(=O)[C@H](C)NC(=O)[C@H](C)NC(=O)[C@H](Cc1c[nH]cn1)NC(=O)[C@H](CC(N)=O)NC(=O)CNC(=O)[C@H](C)NC(=O)[C@H](C)NC(=O)[C@H](CCC(N)=O)NC(=O)[C@H](CC(C)C)NC(=O)[C@H](CC(C)C)NC(=O)[C@H](CCCN=C(N)N)NC(=O)[C@H](CCC(N)=O)NC(=O)[C@H](CC(C)C)NC(=O)[C@H](CCCN=C(N)N)NC(=O)CNC(=O)[C@H](CCC(N)=O)NC(=O)[C@H](CC(C)C)NC(=O)CN)C(=O)N[C@@H](CC(C)C)C(=O)N[C@H](C(=O)N[C@@H](CCSC)C(=O)O)[C@@H](C)O (H-GLQGRLQRLLQAAGNHAAGILTM-OH) | 1.46 µM |
| CC[C@H](C)[C@H](NC(=O)CNC(=O)[C@H](C)NC(=O)[C@H](C)NC(=O)[C@H](Cc1c[nH]cn1)NC(=O)[C@H](CC(N)=O)NC(=O)CNC(=O)[C@H](C)NC(=O)CNC(=O)[C@H](Cc1c[nH]cn1)NC(=O)[C@H](CC(C)C)NC(=O)[C@H](CC(C)C)NC(=O)[C@H](CCC(=O)O)NC(=O)[C@H](Cc1ccc(O)cc1)NC(=O)[C@H](CC(C)C)NC(=O)[C@H](CCCN=C(N)N)NC(=O)[C@H](CS)NC(=O)[C@H](CO)NC(=O)[C@H](CS)NC(=O)[C@@H](NC(=O)[C@H](CCCCN)NC(=O)[C@H](CCC(N)=O)NC(=O)[C@H](CCCN=C(N)N)NC(=O)[C@H](CS)NC(=O)[C@@H](N)CS)[C@@H](C)O)C(=O)N[C@@H](CC(C)C)C(=O)N[C@H](C(=O)N[C@@H](CC(C)C)C(N)=O)[C@@H](C)O (H-CCRQKTCSCRLYELLHGAGNHAAGILTL-NH2) | 0.81 µM |
| CC[C@H](NC(=O)[C@H](CO)NC(=O)[C@H](CS)NC(=O)[C@@H](NC(=O)[C@H](CCCCN)NC(=O)[C@H](CCC(N)=O)NC(=O)[C@H](CCCN=C(N)N)NC(=O)[C@H](CC)NC(=O)[C@H](CS)NC(=O)[C@H](CC(=O)O)NC(=O)[C@@H]1CCCN1C(=O)[C@H](CC(C)C)NC(=O)[C@@H]1CCCN1C(=O)[C@@H]1CCC(=O)N1)[C@@H](C)O)C(=O)N[C@@H](CCCN=C(N)N)C(=O)N[C@@H](CC(C)C)C(=O)N[C@@H](Cc1ccc(O)cc1)C(=O)N[C@@H](CCC(=O)O)C(=O)N[C@@H](CC(C)C)C(=O)N[C@@H](CC(C)C)C(=O)N[C@@H](Cc1c[nH]cn1)C(=O)NCC(=O)N[C@@H](C)C(=O)NCC(=O)N[C@@H](CC(N)=O)C(=O)N[C@@H](Cc1c[nH]cn1)C(=O)N[C@@H](C)C(=O)N[C@@H](C)C(=O)NCC(=O)N[C@H](C(=O)N[C@@H](CC(C)C)C(=O)N[C@H](C(=O)N[C@@H](CC(C)C)C(=O)O)[C@@H](C)O)[C@@H](C)CC ([pGlu]PLPDC[Abu]RQKTCS[Abu]RLYELLHGAGNHAAGILTL-OH) | 1.34 µM |
| CC[C@H](C)[C@H](NC(=O)CNC(=O)[C@H](C)NC(=O)[C@H](C)NC(=O)[C@H](Cc1c[nH]cn1)NC(=O)[C@H](CC(N)=O)NC(=O)CNC(=O)[C@H](C)NC(=O)CNC(=O)[C@H](Cc1c[nH]cn1)NC(=O)[C@H](CC(C)C)NC(=O)[C@H](CC(C)C)NC(=O)[C@H](CCC(=O)O)NC(=O)[C@H](Cc1ccc(O)cc1)NC(=O)[C@H](CC(C)C)NC(=O)[C@H](CCCN=C(N)N)NC(=O)[C@H](CS)NC(=O)[C@H](CO)NC(=O)[C@H](CS)NC(=O)[C@@H](NC(=O)[C@H](CCCCN)NC(=O)[C@H](CCC(N)=O)NC(=O)[C@H](CCCN=C(N)N)NC(=O)[C@H](CS)NC(=O)[C@H](CS)NC(=O)[C@H](CC(=O)O)NC(=O)[C@@H]1CCCN1)[C@@H](C)O)C(=O)N[C@@H](CC(C)C)C(=O)N[C@H](C(=O)N[C@@H](CC(C)C)C(N)=O)[C@@H](C)O (H-PDCCRQKTCSCRLYELLHGAGNHAAGILTL-NH2) | 0.64 µM |
| CC[C@H](C)[C@H](NC(=O)CNC(=O)[C@H](C)NC(=O)[C@H](C)NC(=O)[C@H](Cc1c[nH]cn1)NC(=O)[C@H](CC(N)=O)NC(=O)CNC(=O)[C@H](CO)NC(=O)[C@H](C)NC(=O)[C@H](CCC(N)=O)NC(=O)[C@H](CC(C)C)NC(=O)[C@H](CC(C)C)NC(=O)[C@H](CCCNC(=N)N)NC(=O)[C@H](C)NC(=O)[C@H](CC(C)C)NC(=O)[C@H](CCCNC(=N)N)NC(=O)CNC(=O)[C@H](CCC(N)=O)NC(=O)[C@H](CC(C)C)NC(=O)CN)C(=O)N[C@@H](CC(C)C)C(=O)N[C@H](C(=O)N[C@@H](CCSC)C(=O)O)[C@@H](C)O (H-GLQGRLARLLQASGNHAAGILTM-OH) | 1.3 µM |
| CC[C@H](C)[C@H](NC(=O)CNC(=O)[C@H](C)NC(=O)[C@H](C)NC(=O)[C@H](Cc1cnc[nH]1)NC(=O)[C@H](CC(N)=O)NC(=O)CNC(=O)[C@H](CO)NC(=O)[C@H](C)NC(=O)[C@H](CCC(N)=O)NC(=O)[C@H](CC(C)C)NC(=O)[C@H](CC(C)C)NC(=O)[C@H](CCCNC(=N)N)NC(=O)[C@H](CCC(N)=O)NC(=O)[C@H](CC(C)C)NC(=O)[C@H](CCCNC(=N)N)NC(=O)CNC(=O)[C@@H](N)CCC(N)=O)C(=O)N[C@@H](CC(C)C)C(=O)N[C@H](C(=O)N[C@@H](CCSC)C(N)=O)[C@@H](C)O (H-QGRLQRLLQASGNHAAGILTM-NH2) | 22.2 µM |
| CC[C@H](C)[C@H](NC(=O)CNC(=O)[C@H](C)NC(=O)[C@H](C)NC(=O)[C@H](Cc1c[nH]cn1)NC(=O)[C@H](CC(N)=O)NC(=O)CNC(=O)[C@H](C)NC(=O)CNC(=O)[C@H](Cc1c[nH]cn1)NC(=O)[C@H](CC(C)C)NC(=O)[C@@H](N)CC(C)C)C(=O)N[C@@H](CC(C)C)C(=O)N[C@H](C(=O)N[C@@H](CC(C)C)C(N)=O)[C@@H](C)O (H-LLHGAGNHAAGILTL-NH2) | > 1000 µM |

From ChEMBL document CHEMBL1148480, “Structure-activity studies of orexin a and orexin B at the human orexin 1 and orexin 2 receptors led to orexin 2 receptor selective and orexin 1 receptor preferring ligands” (J Med Chem, 2004)
